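Test compounds were applied to cells in 96-well plates for 48 hours at 5 doses. Here, GI50 denotes the concentration required for 50% inhibition of growth.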 The source made the active and inactive calls. No stated cut-off is given here; in the data, active = GI50 up to about 1.1 µM and inactive = higher.
Tests used:
Experiment in all cases: NCI anticancer screen, dose series, 48 h
SF-268 = system: SF-268
NCI-H460 = system: NCI-H460
OVCAR-3 = system: OVCAR-3
CCRF-CEM = system: CCRF-CEM
HCT-15 = system: HCT-15
KM12 = system: KM12
SF-539 = system: SF-539
SNB-75 = system: SNB-75
RXF 393 = system: RXF 393
A549 = system: A549
NCI/ADR-RES = system: NCI/ADR-RES
SNB-19 = system: SNB-19
DMS-273 = system: DMS-273
A498 = system: A498
NCI-H522 = system: NCI-H522

SMILES	GI50 (SF-268)	GI50 (NCI-H460)	GI50 (OVCAR-3)	GI50 (CCRF-CEM)	GI50 (HCT-15)	GI50 (KM12)	GI50 (SF-539)	GI50 (SNB-75)	GI50 (RXF 393)	GI50 (A549)	GI50 (NCI/ADR-RES)	GI50 (SNB-19)	GI50 (DMS-273)	GI50 (A498)	GI50 (NCI-H522)
Cc1ccc2cc3cccc(C(=O)NCCN(C)C)c3nc2c1	1.08 µM (active)	0.315 µM (active)	1.36 µM (inactive)	0.679 µM (active)	955 nM	1.54 µM (inactive)	1.38 µM (inactive)	1.33 µM (inactive)	1.01 µM (active)	0.644 µM (active)	0.771 µM (active)	0.925 µM (active)	0.647 µM (active)	0.419 µM (active)	–
CC(=O)OC(C)(C)/C=C/C(=O)[C@](C)(O)[C@H]1[C@H](O)C[C@@]2(C)[C@@H]3CC=C4[C@@H](C[C@H](O)C(=O)C4(C)C)[C@]3(CO)C(=O)C[C@]12C [CUCURBITACIN A]	0.168 µM (active)	0.184 µM (active)	0.446 µM (active)	0.286 µM (active)	468 nM	1.1 µM (active)	0.285 µM (active)	0.131 µM (active)	0.208 µM (active)	0.391 µM (active)	–	0.249 µM (active)	0.149 µM (active)	0.231 µM (active)	0.288 µM (active)
O=C(OCc1ccccc1)C(Cc1ccccc1)N(Cc1ccccc1)Cc1ccccc1 (centres undefined)	> 100 µM (inactive)	35.1 µM (inactive)	84.7 µM (inactive)	25.8 µM (inactive)	43700 nM	> 100 µM (inactive)	> 100 µM (inactive)	16.5 µM (inactive)	46.9 µM (inactive)	65.9 µM (inactive)	–	> 100 µM (inactive)	44.6 µM (inactive)	> 100 µM (inactive)	25.7 µM (inactive)
COc1ccc2c3c1O[C@]1(C)C34CCN(C)C(C2)C42C=C[C@@]1(OC)c1c(O)ccc(O)c12	> 100 µM (inactive)	> 100 µM (inactive)	> 100 µM (inactive)	> 100 µM (inactive)	–	> 100 µM (inactive)	> 100 µM (inactive)	> 100 µM (inactive)	> 100 µM (inactive)	> 100 µM (inactive)	–	> 100 µM (inactive)	> 100 µM (inactive)	> 100 µM (inactive)	> 100 µM (inactive)
Cc1ccc(S(=O)(=O)N(CC(=O)O)c2ccccc2)cc1	> 100 µM (inactive)	> 100 µM (inactive)	> 100 µM (inactive)	> 100 µM (inactive)	> 100000 nM	> 100 µM (inactive)	> 100 µM (inactive)	> 100 µM (inactive)	> 100 µM (inactive)	> 100 µM (inactive)	–	> 100 µM (inactive)	> 100 µM (inactive)	> 100 µM (inactive)	> 100 µM (inactive)
C=C1C(=O)O[C@H]2[C@H]1[C@@H](OC(=O)C=C(C)C)CC1=C[C@@H](C[C@@]3(C)O[C@@H]23)OC1=O	–	–	1.59 µM (inactive)	0.859 µM (active)	1930 nM	5.74 µM (inactive)	2.24 µM (inactive)	18 µM (inactive)	1.83 µM (inactive)	22 µM (inactive)	2.17 µM (inactive)	22.3 µM (inactive)	1.61 µM (inactive)	7.33 µM (inactive)	1.16 µM (inactive)
C=CCC(O[Si](C)(C)C(C)(C)C)c1cc(O[Si](C)(C)C(C)(C)C)ccc1OC (centres undefined)	> 85.9 µM (inactive)	> 70 µM (inactive)	> 54.6 µM (inactive)	> 100 µM (inactive)	> 74500 nM	> 100 µM (inactive)	99.3 µM (inactive)	> 55.6 µM (inactive)	58.9 µM (inactive)	> 64.1 µM (inactive)	> 64.7 µM (inactive)	> 62.2 µM (inactive)	> 95.1 µM (inactive)	46.9 µM (inactive)	–
NC1=C(C(=O)O)C(=O)C(Nc2c(O)cccc2C(=O)O)=CC1=O	1 µM (active)	10 µM (inactive)	> 100 µM (inactive)	–	> 100000 nM	> 100 µM (inactive)	> 100 µM (inactive)	> 100 µM (inactive)	31.6 µM (inactive)	> 100 µM (inactive)	–	> 100 µM (inactive)	> 100 µM (inactive)	> 100 µM (inactive)	> 100 µM (inactive)
